Like-named read-outs stand apart in the source and are kept apart here.
Assays:
[1] = acidic environment; data not shown
[2] = cited from earlier work

Solubility [1]: higher in an acidic environment
Compound: C=CC(=O)N1CCC[C@@H](n2nc(-c3ccc(Oc4ccccc4)cc3)c3c(N)ncnc32)C1 [ibrutinib, 1-(3R)-3-(4-amino-3-(4-phenoxyphenyl)-1H-pyrazolo[3,4-d]pryimidin-1-yl)prop-2-en-1-one]
Solubility ([2]; HCl at pH 1.2): slightly soluble
Solubility ([2]; aqueous solutions of pH 4.5-8): practically insoluble
